Experimental findings from patent publication US20240246964A1 (Arbutus Biopharma Corporation, priority 2021, published 2024) are described below.

For orientation: IC50 means the concentration that inhibits the measured activity by half. Read a low IC50 as inhibition by little substance. As usually defined, the EC50 is the concentration at which the effect is half-maximal. Read a low EC50 as an effect from little substance.

The target in test [1] is PD-L1 His protein / PD-1 Fc protein (Homo sapiens (Human), UniProt Q9NZQ7). In words: HTRF Assay (PD-1/PD-L1 interaction). It is filed as binding. The settings on record: PD-L1 His 6 nM, PD-1 Fc 6 nM. In general terms: Time-resolved FRET reads energy transfer from a long-lived donor to a nearby acceptor.
For a further test, the target named is human PD-L1 (Homo sapiens (Human), UniProt Q9NZQ7). Nature of the test: T cell activation luciferase reporter cell culture system (T Cell Activation Assay). It is filed as cell-based. The settings on record: luciferase reporter assay; PD-L1 aAPC/CHO-K1 cells with PD-1 effector Jurkat T cells. (A reporter such as luciferase makes a cellular process visible.)
human PD-L1, sequence (Q9NZQ7 19-290): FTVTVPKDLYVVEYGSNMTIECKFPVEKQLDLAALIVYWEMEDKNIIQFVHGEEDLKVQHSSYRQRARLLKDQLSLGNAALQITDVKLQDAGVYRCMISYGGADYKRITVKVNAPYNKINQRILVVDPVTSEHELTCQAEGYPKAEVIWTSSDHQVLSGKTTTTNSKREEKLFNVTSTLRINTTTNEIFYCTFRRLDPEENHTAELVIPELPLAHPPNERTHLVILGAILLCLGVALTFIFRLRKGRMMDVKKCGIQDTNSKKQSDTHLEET

PD-L1 His protein / PD-1 Fc protein, sequence (Q9NZQ7 19-238): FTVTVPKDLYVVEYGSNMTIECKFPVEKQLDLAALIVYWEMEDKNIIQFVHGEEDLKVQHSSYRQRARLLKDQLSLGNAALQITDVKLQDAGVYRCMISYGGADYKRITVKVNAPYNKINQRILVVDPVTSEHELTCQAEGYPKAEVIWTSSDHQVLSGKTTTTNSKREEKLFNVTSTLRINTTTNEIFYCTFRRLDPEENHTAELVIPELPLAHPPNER

For `COc1cc(-c2nccc(-c3cccc(-c4ccc5c(CNC6CCOCC6)cn(C)c5n4)c3Cl)c2Cl)ccc1CN1CC2(C1)CN(C(C)=O)C2` [Compound 609, 1-(6-(4-(3-Chloro-4-(2-chloro-3-(1-methyl-3-(((tetrahydro-2H-pyran-4-yl)amino)methyl)-1H-pyrrolo[2,3-b]pyridin-6-yl)phenyl)pyridin-2-yl)-2-methoxybenzyl)-2,6-diazaspiro[3.3]heptan-2-yl)ethan-1-one], inhibition in test [1] was half-maximal at 0.22 nM (IC50). The EC50 on human PD-L1 was 10000 nM.
The matching figures for `COc1nc(-c2cccc(-c3nccc(-c4ccc(CN5CC[C@H](O)C5)c(OC)n4)c3Cl)c2Cl)ccc1CN1CC[C@H](O)C1` [Example 773, (S)-1-((3′-Chloro-2′-(2-chloro-3-(5-(((S)-3-hydroxypyrrolidin-1-yl)methyl)-6-methoxypyridin-2-yl)phenyl)-6-methoxy-[2,4′-bipyridin]-5-yl)methyl)pyrrolidin-3-ol]: 1.03 nM and 10.6 nM.
The like results for `COCCNCc1cn(C)c2cc(-c3nccc(-c4cccc(-c5ccc(CNC[C@@H]6CCC(=O)N6)c(OC)n5)c4Cl)c3Cl)ccc12` [Compound 30, (S)-5-((((6-(2-chloro-3-(3-chloro-2-(3-(((2-methoxyethyl)amino)methyl)-1-methyl-1H-indol-6-yl)pyridin-4-yl)phenyl)-2-methoxypyridin-3-yl)methyl)amino)methyl)pyrrolidin-2-one] were, in that order, 15.4 nM and 100 nM.
For the compound `COc1nc(-c2cccc(-c3ccnc(-c4ccc5c(CNCCO)cn(C)c5c4)c3Cl)c2Cl)ccc1CNC[C@@H]1CCC(=O)N1` [Compound 29, (S)-5-((((6-(2-chloro-3-(3-chloro-2-(3-(((2-hydroxyethyl)amino)methyl)-1-methyl-1H-indol-6-yl)pyridin-4-yl)phenyl)-2-methoxypyridin-3-yl)methyl)amino)methyl)pyrrolidin-2-one], the 50% inhibitory concentration (IC50) in test [1] was 1.1 nM. This compound came in with a 50% effective concentration (EC50) at human PD-L1 of 94 nM.
The matching figures for `COc1nc(-c2cccc(-c3ccnc(-c4ccc5c(c4)CCCC5NC[C@H](C)O)c3Cl)c2Cl)ccc1CNC[C@@H]1CCC(=O)N1` (mixture of isomers) [Compound 113, (5S)-5-((((6-(2-chloro-3-(3-chloro-2-(5-(((S)-2-hydroxypropyl)amino)-5,6,7,8-tetrahydronaphthalen-2-yl)pyridin-4-yl)phenyl)-2-methoxypyridin-3-yl)methyl)amino)methyl)pyrrolidin-2-one]: 0.7 nM and 185 nM.
In the case of `COc1cc(-c2nccc(-c3cccc(-c4ccc(CN5CC6(CNC(=O)C6)C5)c(OC)n4)c3Cl)c2Cl)ccc1CN1CC2(C1)CN(C(C)=O)C2` [Example 493, 2-((6-(3-(2-(4-((6-Acetyl-2,6-diazaspiro[3.3]heptan-2-yl)methyl)-3-methoxyphenyl)-3-chloropyridin-4-yl)-2-chlorophenyl)-2-methoxypyridin-3-yl)methyl)-2,6-diazaspiro[3.4]octan-7-one], in test [1], the IC50 is 0.76 nM. This compound also returned a concentration for a half-maximal effect (EC50) at human PD-L1 of 19.2 nM.
`COc1nc(-c2cccc(-c3ccnc(-c4cc(OC)c5nc(CNC[C@@H](C)O)nn5c4)c3Cl)c2Cl)ccc1CNC1CCN(C(C)=O)CC1` [Example 638, (R)-1-(4-(((6-(2-Chloro-3-(3-chloro-2-(2-(((2-hydroxypropyl)amino)methyl)-8-methoxy-[1,2,4]triazolo[1,5-a]pyridin-6-yl)pyridin-4-yl)phenyl)-2-methoxypyridin-3-yl)methyl)amino)piperidin-1-yl)ethan-1-one] showed an IC50 in test [1] of 0.2 nM. Besides, at human PD-L1, the EC50 came to 94.9 nM.
The matching figures for `COc1nc(-c2ccnc(-c3cccc4c3CC[C@@H]4Nc3nc(OC)c(CNC4(C(=O)O)CC4)cc3C(F)(F)F)c2Cl)ccc1CNC[C@@H]1CCC(=O)N1` [Compound 164, 1-(((6-(((S)-4-(3′-chloro-6-methoxy-5-(((((S)-5-oxopyrrolidin-2-yl)methyl)amino)methyl)-[2,4′-bipyridin]-2′-yl)-2,3-dihydro-1H-inden-1-yl)amino)-2-methoxy-5-(trifluoromethyl)pyridine-3-yl)methyl)amino)cyclopropane-1-carboxylic acid]: 0.49 nM and 66.6 nM.
`COc1nc(-c2ccnc(-c3cccc(NC(=O)c4cn(C)c(=O)n(C)c4=O)c3Cl)c2Cl)ccc1CNC1CCN(C(C)=O)CC1` [Compound 721, N-(3-(5-(((1-Acetylpiperidin-4-yl)amino)methyl)-3′-chloro-6-methoxy-[2,4′-bipyridin]-2′-yl)-2-chlorophenyl)-1,3-dimethyl-2,4-dioxo-1,2,3,4-tetrahydropyrimidine-5-carboxamide] registered an IC50 in test [1] of 0.7 nM. The same compound showed an EC50 at human PD-L1 of 1320 nM.
The compound `COc1cc(-c2nccc(-c3cccc(-c4cc(F)c(CNC[C@@H]5CCC(=O)N5)c(OC)n4)c3Cl)c2Cl)cc2c1CN(C[C@H](C)O)CC2` [Compound 176, (S)-5-((((6-(2-chloro-3-(3-chloro-2-(2-((S)-2-hydroxypropyl)-8-methoxy-1,2,3,4-tetrahydroisoquinolin-6-yl)pyridine-4-yl)phenyl)-4-fluoro-2-methoxypyridin-3-yl)methyl)amino)methyl)pyridine1334ne-2-one] showed an IC50 in test [1] of 1.05 nM. The compound further had an EC50 on human PD-L1 of 9.99 nM.
The like results for `COc1cc(-c2nccc(-c3cccc(-c4ccc5c(CNC6CCN(C(C)=O)CC6)cn(C)c5n4)c3Cl)c2Cl)ccc1CN1CC2(C1)CN(C(C)=O)C2` [Compound 564, 1-(4-(((6-(3-(2-(4-((6-Acetyl-2,6-diazaspiro[3.3]heptan-2-yl)methyl)-3-methoxyphenyl)-3-chloropyridin-4-yl)-2-chlorophenyl)-1-methyl-1H-pyrrolo[2,3-b]pyridin-3-yl)methyl)amino)piperidin-1-yl)ethan-1-one] were, in that order, 1.46 nM and 260 nM.
The like results for `COc1cc(-c2nccc(-c3cccc(-c4ccc(CNC5CCN(C(C)=O)CC5)c(OC)n4)c3Cl)c2Cl)ccc1CN1CCC(NC(C)=O)CC1` [Example 325, N-(1-(4-(4-(3-(5-(((1-Acetylpiperidin-4-yl)amino)methyl)-6-methoxypyridin-2-yl)-2-chlorophenyl)-3-chloropyridin-2-yl)-2-methoxybenzyl)piperidin-4-yl)acetamide] were, in that order, 2.76 nM and 39.5 nM.
In test [1], `COc1cc(-c2nccc(-c3cccc(-c4ccc(CN[C@H]5CCC(=O)NC5)c(OC)n4)c3Cl)c2Cl)ccc1CNC1CCN(C(C)=O)CC1` [Example 542, (S)-5-(((6-(3-(2-(4-(((1-Acetylpiperidin-4-yl)amino)methyl)-3-methoxyphenyl)-3-chloropyridin-4-yl)-2-chlorophenyl)-2-methoxypyridin-3-yl)methyl)amino)piperidin-2-one] showed an IC50 of 0.53 nM. For the same compound, the EC50 on human PD-L1 was 79.2 nM.
For `COc1cc(-c2nccc(-c3cccc(-c4ccc(CNC5CCN(C(C)=O)CC5)c(OC)n4)c3Cl)c2Cl)ccc1CNC1CCN(S(C)(=O)=O)CC1` [Example 383, 1-(4-(((6-(2-Chloro-3-(3-chloro-2-(3-methoxy-4-(((1-(methylsulfonyl)piperidin-4-yl)amino)methyl)phenyl)pyridin-4-yl)phenyl)-2-methoxypyridin-3-yl)methyl)amino)piperidin-1-yl)ethan-1-one], in test [1], the IC50 came out at 0.998 nM. A half-maximal effect on human PD-L1 (EC50) was put at 14.4 nM.
